Data set [1] relates to Mus musculus. The data set can be described thus: Induction of hypothermia in CD-1 mouse assessed as change in body temperature at 20 mg/kg, ip measured after 60 mins by thermometric method. Format: functional, organism-based.
In data set [2] the target is 5-hydroxytryptamine receptor 7 (Homo sapiens, UniProt P34969). The data set can be described thus: Displacement of [3H]-5-CT from human 5HT7 receptor expressed in HEK293 cells incubated for 1 hr by liquid scintillation counting method. Format: cell-based. Background: Displacement assays read how much labelled ligand stays bound in the presence of the test substance.

Data set [3] deals with Mus musculus. The data set can be described thus: Induction of hypothermia in CD-1 mouse assessed as change in body temperature at 10 mg/kg, ip measured after 60 mins by thermometric method. Format: functional, organism-based.
For data set [4], the system named is Mus musculus. The data set can be described thus: Induction of hypothermia in CD-1 mouse assessed as change in body temperature at 10 mg/kg, ip pretreated for 30 mins with 5-HT1AR antagonist WAY100635 followed by compound treatment and measured after 30 mins by thermometric method. Format: functional, organism-based.
The subject of data set [5] is Mus musculus. The experiment in a line: Induction of hypothermia in CD-1 mouse assessed as change in body temperature at 5 mg/kg, ip measured after 30 mins by thermometric method. In kind it is functional, organism-based.
Data set [6] concerns Mus musculus. The data set can be described thus: Induction of hypothermia in CD-1 mouse assessed as change in body temperature at 10 mg/kg, ip measured after 30 mins by thermometric method. Format: functional, organism-based.
Data set [7] concerns the target D(2) dopamine receptor (Homo sapiens, UniProt P14416). The data set can be described thus: Displacement of [3H]-raclopride from human D2L receptor expressed in HEK293 cells incubated for 1 hr by liquid scintillation counting method. Format: cell-based.
Data set [8] in a line: Half life in human liver microsomes at 1 uM measured for 5 to 30 mins in presence of NADPH by LC-MS/MS analysis. In kind it is ADME, Microsome. (In general: Microsomes from liver hold many membrane-bound enzymes, among them those of drug oxidation.)
Data set [9] relates to Mus musculus. The experiment in a line: Induction of hypothermia in CD-1 mouse assessed as change in body temperature at 20 mg/kg, ip measured after 90 mins by thermometric method. In kind it is functional, organism-based.
In data set [10] the test system is Mus musculus. The experiment in a line: Induction of hypothermia in CD-1 mouse assessed as change in body temperature at 10 mg/kg, ip pretreated for 60 mins with 5-HT1AR antagonist WAY100635 followed by compound treatment and measured after 30 mins by thermometric method. Format: functional, organism-based.
For data set [11], the system named is Mus musculus. The experiment in a line: Induction of hypothermia in CD-1 mouse assessed as change in body temperature at 10 mg/kg, ip measured after 120 mins by thermometric method. Format: functional, organism-based.
Data set [12] has as its system Mus musculus. The data set can be described thus: Induction of hypothermia in CD-1 mouse assessed as change in body temperature at 20 mg/kg, ip measured after 30 mins by thermometric method. In kind it is functional, organism-based.
The test system of data set [13] is Mus musculus. The experiment in a line: Induction of hypothermia in CD-1 mouse assessed as change in body temperature at 5 mg/kg, ip measured after 90 mins by thermometric method. Format: functional, organism-based.
The test system of data set [14] is Mus musculus. The experiment in a line: Induction of hypothermia in CD-1 mouse assessed as change in body temperature at 5 mg/kg, ip measured after 60 mins by thermometric method. In kind it is functional, organism-based.
In data set [15] the target is Sodium-dependent serotonin transporter (Homo sapiens, UniProt P31645). The experiment in a line: Displacement of [3H]-imipramine from human serotonin transporter expressed in HEK293 cells membranes incubated for 30 mins by microbeta scintillation counting analysis. In kind it is cell membranes.
Data set [16] concerns the target 5-hydroxytryptamine receptor 6 (Homo sapiens, UniProt P50406). The data set can be described thus: Displacement of [3H]-LSD from human 5-HT6 receptor expressed in HEK293 cells incubated for 1 hr by liquid scintillation counting method. Format: cell-based.
Data set [17] deals with Mus musculus. The data set can be described thus: Induction of hypothermia in CD-1 mouse assessed as change in body temperature at 10 mg/kg, ip measured after 90 mins by thermometric method. In kind it is functional, organism-based.
The target of data set [18] is T1, 5-hydroxytryptamine receptor 1A (Homo sapiens, UniProt P08908).
T1 sequence (P08908 whole entry): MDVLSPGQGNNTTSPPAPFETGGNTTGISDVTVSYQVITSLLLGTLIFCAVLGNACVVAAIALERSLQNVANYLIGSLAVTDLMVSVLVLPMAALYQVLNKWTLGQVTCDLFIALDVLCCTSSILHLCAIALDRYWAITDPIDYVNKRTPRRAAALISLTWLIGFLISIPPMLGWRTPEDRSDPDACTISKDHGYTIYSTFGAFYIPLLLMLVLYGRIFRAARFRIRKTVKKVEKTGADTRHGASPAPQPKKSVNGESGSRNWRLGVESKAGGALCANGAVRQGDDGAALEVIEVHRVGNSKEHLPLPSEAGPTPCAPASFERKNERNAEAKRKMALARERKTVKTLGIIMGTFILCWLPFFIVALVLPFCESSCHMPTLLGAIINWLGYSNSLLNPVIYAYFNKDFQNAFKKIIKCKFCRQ
The data set can be described thus: biochemical.

In data set [19] the test system is Mus musculus. The experiment in a line: Induction of hypothermia in CD-1 mouse assessed as change in body temperature at 5 mg/kg, ip measured after 120 mins by thermometric method. Format: functional, organism-based.
Data set [20] relates to Mus musculus. The experiment in a line: Induction of hypothermia in CD-1 mouse assessed as change in body temperature at 20 mg/kg, ip measured after 120 mins by thermometric method. In kind it is functional, organism-based.

Where only a bound is given, the exact number is not on record here.

Chain of 5-hydroxytryptamine receptor 6 (P50406 whole entry): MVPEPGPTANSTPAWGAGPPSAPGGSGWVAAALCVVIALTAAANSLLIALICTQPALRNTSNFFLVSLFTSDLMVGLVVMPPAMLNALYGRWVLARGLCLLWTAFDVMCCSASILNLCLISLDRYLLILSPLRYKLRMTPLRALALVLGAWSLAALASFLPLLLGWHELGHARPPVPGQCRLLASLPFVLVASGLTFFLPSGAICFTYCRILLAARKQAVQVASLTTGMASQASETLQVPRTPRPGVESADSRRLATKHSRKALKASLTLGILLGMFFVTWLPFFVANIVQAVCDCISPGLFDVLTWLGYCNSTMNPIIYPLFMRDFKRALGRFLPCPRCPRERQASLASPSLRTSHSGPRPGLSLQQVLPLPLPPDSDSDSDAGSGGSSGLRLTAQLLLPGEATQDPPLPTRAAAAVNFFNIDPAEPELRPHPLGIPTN
Chain of 5-hydroxytryptamine receptor 7 (P34969 whole entry): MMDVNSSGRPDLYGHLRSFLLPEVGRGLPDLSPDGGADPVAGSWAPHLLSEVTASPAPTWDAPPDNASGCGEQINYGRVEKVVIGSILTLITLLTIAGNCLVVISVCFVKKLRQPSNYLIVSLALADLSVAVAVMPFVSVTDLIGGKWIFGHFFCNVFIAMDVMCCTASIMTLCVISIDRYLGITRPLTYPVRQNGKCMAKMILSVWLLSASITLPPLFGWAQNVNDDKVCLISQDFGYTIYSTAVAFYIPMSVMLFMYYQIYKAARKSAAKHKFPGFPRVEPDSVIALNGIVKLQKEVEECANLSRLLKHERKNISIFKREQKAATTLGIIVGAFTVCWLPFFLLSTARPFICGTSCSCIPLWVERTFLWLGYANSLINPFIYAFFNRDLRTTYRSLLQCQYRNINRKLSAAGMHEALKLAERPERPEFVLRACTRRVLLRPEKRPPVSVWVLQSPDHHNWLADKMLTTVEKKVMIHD
Chain of D(2) dopamine receptor (P14416 whole entry): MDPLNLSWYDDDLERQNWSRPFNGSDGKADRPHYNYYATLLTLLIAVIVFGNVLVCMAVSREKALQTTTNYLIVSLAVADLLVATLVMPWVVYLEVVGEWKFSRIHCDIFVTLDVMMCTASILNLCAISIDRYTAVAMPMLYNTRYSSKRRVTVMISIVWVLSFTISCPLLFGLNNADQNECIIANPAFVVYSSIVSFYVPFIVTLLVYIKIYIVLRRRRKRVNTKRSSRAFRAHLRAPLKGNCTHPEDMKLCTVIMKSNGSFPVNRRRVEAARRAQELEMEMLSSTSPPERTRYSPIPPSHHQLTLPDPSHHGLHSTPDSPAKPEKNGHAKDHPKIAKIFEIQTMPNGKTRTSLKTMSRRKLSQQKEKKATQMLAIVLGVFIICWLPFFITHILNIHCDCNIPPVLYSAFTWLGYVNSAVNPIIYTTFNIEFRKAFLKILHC
Chain of Sodium-dependent serotonin transporter (P31645 whole entry): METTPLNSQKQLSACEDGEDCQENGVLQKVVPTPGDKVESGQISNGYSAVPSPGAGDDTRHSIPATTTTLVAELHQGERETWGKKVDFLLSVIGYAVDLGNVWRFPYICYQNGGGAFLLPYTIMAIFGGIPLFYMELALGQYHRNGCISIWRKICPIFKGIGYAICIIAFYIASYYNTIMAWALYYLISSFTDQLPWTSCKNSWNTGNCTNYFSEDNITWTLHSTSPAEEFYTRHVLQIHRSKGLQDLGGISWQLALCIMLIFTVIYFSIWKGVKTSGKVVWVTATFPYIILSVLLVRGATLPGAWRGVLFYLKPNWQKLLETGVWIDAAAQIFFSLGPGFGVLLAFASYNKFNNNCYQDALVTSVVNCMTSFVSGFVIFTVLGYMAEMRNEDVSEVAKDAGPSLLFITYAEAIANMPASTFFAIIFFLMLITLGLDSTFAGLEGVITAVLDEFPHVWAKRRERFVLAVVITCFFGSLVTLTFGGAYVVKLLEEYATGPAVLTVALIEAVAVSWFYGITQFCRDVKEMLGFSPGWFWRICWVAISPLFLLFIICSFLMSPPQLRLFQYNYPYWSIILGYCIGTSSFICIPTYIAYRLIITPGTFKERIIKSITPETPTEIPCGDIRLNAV

Regarding `COc1ccc2[nH]cc(C3CC(=O)N(CCCCN4CCC(c5c[nH]c6ccccc56)CC4)C3=O)c2c1` (centres undefined), the deltaT in data set [1] is -1.5 °C; in data set [3], -0.4 °C; in data set [4] it was 0.4 °C; in data set [5] it was -0.2 °C; in data set [6], -1.3 °C; in data set [9] it was -1.1 °C. Further, the deltaT in [10] is 0.5 °C; in data set [11], -0.4 °C; in data set [12], -2.9 °C; in data set [13] it was 0 °C; in [14] it was 0 °C; in data set [17] it was -0.4 °C. The deltaT is -0.1 °C in [19] and -0.9 °C in data set [20]. The Ki in data set [2] came out at 25 nM; in [7] it was 16 nM; in [15], 705 nM; in data set [16], 81 nM; in data set [18], 6.3 nM. Further, the half-life at 1 µM in data set [8] stood at 10.5 min.

With `COc1ccc2[nH]cc(C3CC(=O)N(CCCN4CCC(c5c[nH]c6ccccc56)CC4)C3=O)c2c1` (centres undefined), the Ki in data set [15] was found to be 523 nM; in data set [18], 204 nM.

`COc1ccc2[nH]cc(C3CCN(CCN4C(=O)CC(c5c[nH]c6ccc(OC)cc56)C4=O)CC3)c2c1` (centres undefined): the inhibitory constant (Ki) in [15] stood at 63 nM; in data set [18] it was 240 nM.

In [18], `COc1ccc2[nH]cc(C3CCCN(CCCCN4C(=O)CC(c5c[nH]c6ccccc56)C4=O)C3)c2c1` (centres undefined) had an inhibition constant (Ki) of 78 nM.

On to `COc1ccc2[nH]cc(C3CCN(CCCN4C(=O)CC(c5c[nH]c6ccc(OC)cc56)C4=O)CC3)c2c1` (centres undefined), for which the Ki was determined as 111 nM in data set [15] and 68.7 nM in data set [18].

For `COc1ccc2[nH]cc(C3CC(=O)N(CCCCN4CCC(c5c[nH]c6ccc(F)cc56)CC4)C3=O)c2c1` (centres undefined), the deltaT in data set [1] is 0.5 °C; in data set [3] it was -0.1 °C; in [4], -0.1 °C; in data set [5] it was -0.1 °C; in [6], -1.3 °C; in data set [9], 0.6 °C. Also, the deltaT in [10] is -0.2 °C; in [11], 0.4 °C; in data set [12], -1.8 °C; in [13], 0.1 °C; in data set [14] it was 0.4 °C; in data set [17], 0.3 °C. Besides, the deltaT in [19] is -0.4 °C; in [20] it was 0.6 °C. In addition, the Ki is 641 nM in [2]; 62 nM in [7]; 17.5 nM in data set [15]; 85 nM in data set [16]; 4.9 nM in data set [18]. The half-life at 1 µM in [8] was 9.9 min.

`O=C1CC(c2c[nH]c3ccccc23)C(=O)N1CCCCN1CCCC(c2c[nH]c3ccccc23)C1` (centres undefined) came in with an inhibitory constant (Ki) in data set [18] of 122 nM.

With `COc1ccc2[nH]cc(C3CCN(CCCCN4C(=O)CC(c5c[nH]c6ccc(F)cc56)C4=O)CC3)c2c1` (centres undefined), the deltaT in data set [1] was -1.4 °C; in [3] it was 0.2 °C; in data set [4], -0.4 °C; in data set [5], 0.4 °C; in data set [6] it was -1.1 °C; in data set [9], -0.6 °C. Besides, the deltaT in data set [10] was 0.8 °C; in data set [11], 0.3 °C; in [12], -3.2 °C; in data set [13], 0.6 °C; in data set [14], 0.6 °C; in data set [17] it was 0.2 °C. Besides, the deltaT is 0.8 °C in [19] and -0.2 °C in [20]. Also, the inhibition constant (Ki) in data set [2] was found to be 458 nM; in [7], 20 nM; in data set [15] it was 201 nM; in data set [16], 71 nM; in data set [18], 3.2 nM. Also, in data set [8], the half-life at 1 µM was found to be 9.9 min.

With `COc1ccc2[nH]cc(C3CC(=O)N(CCN4CCC(c5c[nH]c6ccccc56)CC4)C3=O)c2c1` (centres undefined), the Ki in data set [15] worked out at 142 nM; in data set [18] it was 48.7 nM.

As to `O=C1CC(c2c[nH]c3ccc(F)cc23)C(=O)N1CCN1CCC(c2c[nH]c3ccc(F)cc23)CC1` (centres undefined), the Ki in data set [15] stood at 314 nM; in data set [18], 700 nM.

Regarding `O=C1CC(c2c[nH]c3ccc(F)cc23)C(=O)N1CCCCN1CCC(c2c[nH]c3ccc(F)cc23)CC1` (centres undefined), the deltaT in [1] was -0.4 °C; in data set [3], -0.1 °C; in data set [4], 0.4 °C; in [5] it was 0.4 °C; in [6] it was -1 °C; in [9] it was 0.1 °C. Further, the deltaT is 0.4 °C in data set [10]; 0.4 °C in data set [11]; -2 °C in data set [12]; 0.4 °C in data set [13]; 0.2 °C in data set [14]; 0.3 °C in data set [17]. Further, the deltaT in data set [19] is 0.3 °C; in data set [20], 0.5 °C. Moreover, the inhibitory constant (Ki) in data set [2] stood at 1160 nM; in data set [7], 19 nM; in [15], 32.4 nM; in [16] it was 301 nM; in data set [18], 7 nM. Moreover, the half-life at 1 µM in data set [8] was 8.6 min.

As for `COc1ccc2[nH]cc(C3CCN(CCCN4C(=O)CC(c5c[nH]c6ccc(F)cc56)C4=O)CC3)c2c1` (centres undefined), the Ki in [15] was 156 nM; in [18], 157 nM.

As to `COc1ccc2[nH]cc(C3CC(=O)N(CCCN4CCC(c5c[nH]c6ccc(F)cc56)CC4)C3=O)c2c1` (centres undefined), the inhibition constant (Ki) in data set [15] was 30 nM; in data set [18] it was 246 nM.

Turning to `COc1ccc2[nH]cc(C3CC(=O)N(CCN4CCC(c5c[nH]c6ccc(F)cc56)CC4)C3=O)c2c1` (centres undefined), the Ki amounted to 221 nM in data set [15] and 222 nM in data set [18].

For the molecule `COc1ccc2[nH]cc(C3CCN(CCN4C(=O)CC(c5c[nH]c6ccc(F)cc56)C4=O)CC3)c2c1` (centres undefined), the Ki in [15] is 1310 nM; in [18], greater than 5000 nM.

In data set [18], `O=C1CC(c2c[nH]c3ccccc23)C(=O)N1CCCCN1CCCC(c2c[nH]c3ccc(F)cc23)C1` (centres undefined) registered an inhibition constant (Ki) of 183 nM.

In data set [18], `COc1ccc2[nH]cc(C3CCCN(CCCCN4C(=O)CC(c5c[nH]c6ccc(OC)cc56)C4=O)C3)c2c1` (centres undefined) yielded a Ki of 52 nM.

Regarding `O=C1CC(c2c[nH]c3ccc(F)cc23)C(=O)N1CCN1CCC(c2c[nH]c3ccccc23)CC1` (centres undefined), the values for the inhibition constant (Ki) in data set [15] and in data set [18] were 102 nM and 320 nM, respectively.

As for `O=C1CC(c2c[nH]c3ccc(F)cc23)C(=O)N1CCCN1CCC(c2c[nH]c3ccc(F)cc23)CC1` (centres undefined), the Ki is 140 nM in data set [15] and 336 nM in [18].

As to `O=C1CC(c2c[nH]c3ccc(F)cc23)C(=O)N1CCCN1CCC(c2c[nH]c3ccccc23)CC1` (centres undefined), the Ki in data set [15] was found to be 151 nM; in data set [18], 143 nM.

With `CN(C)C(=O)N[C@H]1CC[C@H](CCN2CCN(c3cccc(Cl)c3Cl)CC2)CC1` [CARIPRAZINE], in data set [2], the inhibition constant Ki was found to be 111 nM.

Usually Ki stands for a dissociation constant, usually derived from enzyme kinetics or from competition with a known ligand. By half-life is commonly meant the time in which the quantity being followed falls by half.

Values taken from ChEMBL document CHEMBL4311986, “Synthesis and biological evaluation of new multi-target 3-(1H-indol-3-yl)pyrrolidine-2,5-dione derivatives with potential antidepressant effect” (Eur J Med Chem, 2019).
